Laboratory results from ChEMBL document CHEMBL5465560, “Selectivity Literature for EUbOPEN Chemogenomic Library” (2024).
pIC50: −log10 of the molar value. One block for each molecule: values may come before it.

What was measured:
[1] = molecular target: T1, Histone-lysine N-methyltransferase NSD3 (Homo sapiens) (UniProt Q9BZ95); assay: Selectivity interaction (Methyltransferase screen (radiometric assays, panel of 8 PRMTs, 21 protein lysine methyltransferases, 3 DNA methyltransferases, and one RNA methyltransferase)) EUB0000271b NSD3
T1 sequence (whole entry): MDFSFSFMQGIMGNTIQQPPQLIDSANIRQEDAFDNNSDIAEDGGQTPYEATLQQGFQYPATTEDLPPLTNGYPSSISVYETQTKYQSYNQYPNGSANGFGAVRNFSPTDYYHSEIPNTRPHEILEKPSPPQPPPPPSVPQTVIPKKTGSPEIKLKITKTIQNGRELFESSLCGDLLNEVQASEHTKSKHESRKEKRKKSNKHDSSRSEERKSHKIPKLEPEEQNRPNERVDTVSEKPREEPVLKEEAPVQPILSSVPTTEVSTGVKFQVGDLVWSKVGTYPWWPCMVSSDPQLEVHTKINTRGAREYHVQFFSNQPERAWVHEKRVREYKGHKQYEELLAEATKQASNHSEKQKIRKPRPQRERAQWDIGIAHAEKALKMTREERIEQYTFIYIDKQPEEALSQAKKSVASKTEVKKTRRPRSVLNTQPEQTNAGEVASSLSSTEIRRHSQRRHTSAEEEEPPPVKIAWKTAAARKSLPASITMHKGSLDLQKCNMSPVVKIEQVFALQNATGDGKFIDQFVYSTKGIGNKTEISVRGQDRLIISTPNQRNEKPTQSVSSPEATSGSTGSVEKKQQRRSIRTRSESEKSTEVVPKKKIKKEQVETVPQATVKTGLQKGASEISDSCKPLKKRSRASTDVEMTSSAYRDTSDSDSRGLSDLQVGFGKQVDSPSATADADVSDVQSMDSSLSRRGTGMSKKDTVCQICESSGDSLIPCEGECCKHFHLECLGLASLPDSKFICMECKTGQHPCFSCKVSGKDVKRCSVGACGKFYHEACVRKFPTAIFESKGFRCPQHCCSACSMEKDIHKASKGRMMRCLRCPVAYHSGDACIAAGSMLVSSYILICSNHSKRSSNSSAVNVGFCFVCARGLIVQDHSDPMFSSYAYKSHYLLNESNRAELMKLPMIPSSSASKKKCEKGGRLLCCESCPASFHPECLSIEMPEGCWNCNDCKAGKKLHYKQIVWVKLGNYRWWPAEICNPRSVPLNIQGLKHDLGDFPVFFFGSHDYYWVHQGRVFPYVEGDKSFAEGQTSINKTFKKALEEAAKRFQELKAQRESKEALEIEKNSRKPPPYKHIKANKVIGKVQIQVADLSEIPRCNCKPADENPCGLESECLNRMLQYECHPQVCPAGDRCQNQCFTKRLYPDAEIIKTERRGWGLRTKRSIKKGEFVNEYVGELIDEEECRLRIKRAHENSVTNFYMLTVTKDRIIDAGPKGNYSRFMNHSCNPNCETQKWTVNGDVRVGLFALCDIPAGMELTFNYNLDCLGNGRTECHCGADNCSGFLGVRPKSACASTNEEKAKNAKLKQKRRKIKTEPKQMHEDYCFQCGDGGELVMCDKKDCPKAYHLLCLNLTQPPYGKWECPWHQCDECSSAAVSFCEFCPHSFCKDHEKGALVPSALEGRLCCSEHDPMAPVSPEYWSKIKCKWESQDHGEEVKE

[2] = molecular target: T2, Mitogen-activated protein kinase kinase kinase 5 (Homo sapiens) (UniProt Q99683); assay: Selectivity interaction (Kinase panel (KiNativ target engagement assay in Jurkat cells)) EUB0001635a MAP3K5; type: cell-based; details: Selectivity number of off-targets 0.0, Selectivity number of targets 233.0, Source Knowledge https://www.sciencedirect.com/science/article/pii/S2451945619300674?via%3Dihub, at 1 µM
T2 sequence (whole entry): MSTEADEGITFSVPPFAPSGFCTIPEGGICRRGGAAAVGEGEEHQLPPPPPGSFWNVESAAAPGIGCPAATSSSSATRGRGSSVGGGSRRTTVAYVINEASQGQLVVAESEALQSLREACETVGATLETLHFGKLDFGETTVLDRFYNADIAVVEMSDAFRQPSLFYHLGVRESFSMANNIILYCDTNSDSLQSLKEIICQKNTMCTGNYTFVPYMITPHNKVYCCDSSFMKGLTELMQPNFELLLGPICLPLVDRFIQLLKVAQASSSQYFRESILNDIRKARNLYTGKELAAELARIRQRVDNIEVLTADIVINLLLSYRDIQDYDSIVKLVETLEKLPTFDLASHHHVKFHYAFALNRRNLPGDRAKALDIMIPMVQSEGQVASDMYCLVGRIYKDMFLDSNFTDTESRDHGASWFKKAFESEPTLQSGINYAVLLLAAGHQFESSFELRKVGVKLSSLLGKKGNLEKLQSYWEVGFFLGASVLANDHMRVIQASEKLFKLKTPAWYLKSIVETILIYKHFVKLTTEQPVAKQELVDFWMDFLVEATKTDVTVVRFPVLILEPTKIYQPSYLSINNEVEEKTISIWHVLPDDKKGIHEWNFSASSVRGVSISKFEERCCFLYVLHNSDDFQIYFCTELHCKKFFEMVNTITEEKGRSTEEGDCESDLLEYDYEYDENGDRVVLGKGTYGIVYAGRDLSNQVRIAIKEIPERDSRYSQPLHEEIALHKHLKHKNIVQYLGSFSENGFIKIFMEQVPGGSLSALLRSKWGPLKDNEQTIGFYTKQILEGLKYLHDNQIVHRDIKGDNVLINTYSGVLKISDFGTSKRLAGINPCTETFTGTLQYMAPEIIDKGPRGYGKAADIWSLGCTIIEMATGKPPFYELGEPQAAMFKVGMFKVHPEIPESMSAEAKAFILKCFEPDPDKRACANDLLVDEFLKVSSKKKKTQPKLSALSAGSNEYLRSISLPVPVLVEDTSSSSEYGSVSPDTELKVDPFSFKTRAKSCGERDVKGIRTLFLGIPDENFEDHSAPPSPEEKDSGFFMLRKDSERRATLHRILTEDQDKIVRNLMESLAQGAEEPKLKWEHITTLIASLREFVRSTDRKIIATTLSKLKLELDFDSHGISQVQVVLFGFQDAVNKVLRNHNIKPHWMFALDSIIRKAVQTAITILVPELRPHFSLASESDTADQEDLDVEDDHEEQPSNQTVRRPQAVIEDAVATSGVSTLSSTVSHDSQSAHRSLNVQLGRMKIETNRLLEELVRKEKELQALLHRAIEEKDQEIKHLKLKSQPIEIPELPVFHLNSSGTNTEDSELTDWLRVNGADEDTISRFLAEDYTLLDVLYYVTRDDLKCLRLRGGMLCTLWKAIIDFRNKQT

D(3) dopamine receptor = D(3) dopamine receptor (Homo sapiens, UniProt P35462); assay: Selectivity interaction (Dopamine D3 receptor assay, human recombinant ) EUB0000877a DRD3
[3] = molecular target: Serine/threonine-protein kinase PAK 4 (Homo sapiens, UniProt O96013); assay: Selectivity interaction (KinomeScan (DiscoverX)) EUB0000666a PAK4; details: at 10 µM
Serine/threonine-protein kinase PAK 4, sequence (O96013 whole entry, looked up): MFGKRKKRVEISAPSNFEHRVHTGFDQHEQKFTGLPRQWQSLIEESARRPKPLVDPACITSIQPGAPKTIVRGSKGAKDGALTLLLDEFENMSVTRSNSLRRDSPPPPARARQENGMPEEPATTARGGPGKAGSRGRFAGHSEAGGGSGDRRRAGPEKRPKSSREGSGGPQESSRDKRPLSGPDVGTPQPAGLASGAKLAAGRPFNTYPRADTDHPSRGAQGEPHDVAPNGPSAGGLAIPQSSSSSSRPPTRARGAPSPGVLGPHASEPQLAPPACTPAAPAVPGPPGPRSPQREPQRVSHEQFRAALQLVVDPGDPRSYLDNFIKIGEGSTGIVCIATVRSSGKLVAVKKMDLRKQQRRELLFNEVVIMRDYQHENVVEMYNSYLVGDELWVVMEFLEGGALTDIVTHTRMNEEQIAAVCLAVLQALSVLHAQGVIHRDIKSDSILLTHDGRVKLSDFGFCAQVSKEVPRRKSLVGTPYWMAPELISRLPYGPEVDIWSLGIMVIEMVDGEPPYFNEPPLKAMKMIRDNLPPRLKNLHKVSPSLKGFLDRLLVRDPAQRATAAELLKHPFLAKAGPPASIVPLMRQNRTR

D(3) dopamine receptor, sequence (P35462 whole entry): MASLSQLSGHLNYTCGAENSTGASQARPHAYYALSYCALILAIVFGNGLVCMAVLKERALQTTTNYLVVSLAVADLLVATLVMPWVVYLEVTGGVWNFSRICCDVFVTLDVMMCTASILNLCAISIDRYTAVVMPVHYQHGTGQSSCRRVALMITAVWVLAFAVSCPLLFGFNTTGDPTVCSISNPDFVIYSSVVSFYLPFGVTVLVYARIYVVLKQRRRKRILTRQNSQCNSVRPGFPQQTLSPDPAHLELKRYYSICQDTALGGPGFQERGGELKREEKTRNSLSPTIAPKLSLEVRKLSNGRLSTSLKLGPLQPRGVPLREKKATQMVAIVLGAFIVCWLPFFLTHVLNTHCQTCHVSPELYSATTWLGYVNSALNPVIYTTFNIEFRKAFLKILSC

Compound: Cc1cc(C)cc([C@@H]2c3cc(C)ccc3NC(=O)CN2C(=O)c2ccc(Br)s2)c1
% of activity ([1]; at 1 µM): 99.3%
% of activity ([1]; at 10 µM): 104%

Compound: C=CC(=O)Nc1ccc(C(=O)Nc2[nH]nc3c2CN(C(=O)N[C@H](CN(C)C)c2ccccc2)C3(C)C)cc1
% of engagement [2]: 3.6%

pIC50 (D(3) dopamine receptor): < 4.52
Compound: CCC(=O)N1CC[C@H](Nc2ncnc3c2CN(c2cnc(OC)c(C(F)(F)F)c2)CC3)C1 [LENIOLISIB]

Compound: O=C(NOC[C@H](O)CO)c1ccc(F)c(F)c1Nc1ccc(I)cc1F
% of control [3]: 100%
